Measured values reported in patent US12378178B2, “Oleic acid derivatives as treatments for Friedreich ataxia and inhibitors of ferroptosis” (THE TRUSTEES OF THE UNIVERSITY OF PENNSYLVANIA, priority 2019, dated 2025).
Entries after “also recorded” stand apart in the source; their conditions may differ.

Key:
[1] = system: human FRDA fibroblast line GM4078; experiment: Survival of human FRDA fibroblast line GM4078 treated with FAC and BSO; type: cell-based; conditions: for Relative to Oleic Acid (change in survival compared to cells treated with 40 μM oleic acid) / toxicity / activity in dose response: FAC and BSO; for toxicity: compound 40 μM; for activity in dose response: lower concentrations down to 5 μM; for activity: trifluoromethyl ketone and alcohol analogs
Procedure: To test the efficacy of the above compounds, they were tested at least at two different concentrations using human FRDA fibroblast line GM4078 treated with FAC and BSO and the change in survival compared to cells treated with 40 μM oleic acid was measured Table 2 has the results of the compounds tested at 40 μM.

[2] = system: mouse fibroblast I154F cell lines; experiment: Rescue of viability of murine I154F fibroblasts treated with FAC+BSO; conditions: for activity in FAC+BSO assay: following FAC+BSO treatment, concentration not given; for Relative to Oleic Acid: 1 = oleic acid, 0.5 = no rescue
[3] = system: immortalized myoblast cell line transfected with a frataxin siRNA; experiment: Lipid peroxidation in immortalized myoblast cell line with frataxin siRNA knock-down; type: cell-based; conditions: compound 5 μM every 48 h post transfection
Procedure: Knocking-down frataxin in human fibroblasts results in increased lipid peroxidation, which could be easily measured when the cells were also treated with the ferroptosis inducer RSL-3. To test whether OA200R would be efficacious in the knock-down system, an immortalized myoblast cell line was transfected with a frataxin siRNA or a scrambled siRNA control. A 65% protein loss was achieved over 4 days and a statistically significant increase of lipid peroxidation (1.4 fold) compared to the cells transfected with a scrambled control.

lipoxygenases (Lox) = experiment: In vitro lipoxygenase activity assay; type: biochemical; conditions: compound at 1 nM and 10 nM; solubility problems precluded higher concentrations
Procedure: Oleic acid has been reported to inhibit soybean lipoxygenase, as well as human 15-lipoxygenase, by binding an allosteric site. […] Whether O[…] was inhibiting lipoxygenase activity was tested using an in vitro assay.

[4] = system: immortalized human fibroblasts 3665-T cells; experiment: Survival of immortalized human fibroblasts 3665-T treated with FAC and BSO; type: cell-based; conditions: for survival: FAC and BSO (95% cell death)
Description: Stereospecific activity of the two enantiomers was confirmed using the immortalized human fibroblasts 3665-T cells, a more severe model of FRDA. […] (FIG. 2A).

[5] = system: human FRDA fibroblasts 3816; experiment: Rescue of human FRDA fibroblasts 3816 treated with erastin; type: cell-based; conditions: for survival: 10 μM erastin for 24 h (85% cell death)
[6] = system: murine fibroblast I154F cells; experiment: Lipid peroxidation in murine fibroblast I154F cells; type: cell-based
Procedure: The basal level of lipid peroxides was tested in the murine fibroblast I154F cells compared to the parental line 2F1 and a detectable higher level of lipid peroxides was found in the cells containing a missense frataxin (FIG. 3A).

[7] = system: human FRDA fibroblasts 3816; experiment: Rescue of human FRDA fibroblasts 3816 treated with erastin; type: cell-based; conditions: erastin 5 μM; for survival: 48 h (erastin alone 32%)
Procedure: Addition of O[…] at 5 μM was sufficient to increase survival to 50% (1.5 fold) and at 10 μM and 20 μM survival went up to 80 and 84% (2.5 and 2.6 fold) respectively (FIG. 2B).

PGC1-α = PGC1-α expression in human FRDA fibroblasts GM3816; type: cell-based; conditions: compound 16 μM; after 96 h
Procedure: Oleic acid, as well as other fatty acids of different length and degree of saturation, binds and activates the peroxisome proliferator-activated receptor gamma (PPAR-γ), a key regulator of glucose and lipid metabolism, which up-regulates PGC1-α, among other targets. Pioglitazone, a PPAR-γ agonist is a thiazolidinedione used to treat type-2 diabetes. […] Human FRDA fibroblasts GM3816 were treated with 10 μM pioglitazone and increased PGC1-α expression was measured starting at 48 h. The expression doubled at 96 h, a time frame sufficient for PGC1-α to have an effect in a typical FAC+BSO experiment, whereas 16 μM oleic acid increased PGC1-α expression only 1.4 fold after 96 h.

[8] = system: murine fibroblast I154F cells; experiment: Rescue from erastin-induced ferroptosis, murine I154F fibroblast model; type: cell-based; conditions: 5 μM erastin for 48 h (erastin alone 44%)
[9] = system: healthy human fibroblasts with frataxin knockdown; conditions: earlier work referred to in the text; cited from earlier work

CCCCCC/C=C\CCCCCCCCC(O)C(F)(F)F (racemic) [[rac]-HA-200]
Relative to Oleic Acid (change in survival compared to cells treated with 40 μM oleic acid) ([1]; tested at 40 μM): 0.56 ± 0.03

CCCCCCCC/C=C\CCCCCCCC(O)C(F)(F)F (racemic) [[rac]-OA-200, (Z)-1,1,1-trifluorononadec-10-en-2-ol]
Relative to Oleic Acid (change in survival compared to cells treated with 40 μM oleic acid) ([1]; 10 μM printed beside the value): 0.67 ± 0.17 | potency in rescuing cell viability compared with oleic acid ([1]; cells treated with FAC and BSO, or with erastin): significantly more potent than oleic acid | toxicity [1]: slightly toxic | activity in dose response [1]: active

CCCCCCCCCC(=O)O [Capric Acid]
activity in FAC+BSO assay [2]: inactive | Relative to Oleic Acid ([2]; tested at 40 μM, <0.5 toxic): 0.49 ± 0.09

CCCCCC/C=C\CCCCCCCCCC(=O)O [Cis-Vaccenic Acid]
efficacy in FAC+BSO assay ([2]; compound 40 μM): comparable to oleic acid | Relative to Oleic Acid ([2]; tested at 40 μM, <0.5 toxic): 1.00 ± 0.08

CCCCCCCC/C=C/CCCCCCCC(=O)O [Elaidic Acid]
efficacy in FAC+BSO assay ([2]; compound 40 μM): slightly toxic | efficacy in FAC+BSO assay ([2]; compound 160 μM): somehow effective | Relative to Oleic Acid ([2]; tested at 40 μM, <0.5 toxic): 0.30 ± 0.08

CCCCCCCC/C=C\CCCCCCCCCCCC(=O)O [Erucic add]
efficacy in FAC+BSO assay ([2]; compound 40 μM): comparable to oleic acid | Relative to Oleic Acid ([2]; tested at 40 μM, <0.5 toxic): 0.93 ± 0.07

CCCCCCCCCC/C=C\CCCCCCCC(=O)O [Gadoleic acid]
efficacy in FAC+BSO assay ([2]; compound 40 μM): comparable to oleic acid | Relative to Oleic Acid ([2]; tested at 40 μM, <0.5 toxic): 0.77 ± 0.16

CCCCCC/C=C\CCCCCCCCC(=O)C(F)(F)F [HA-210]
Relative to Oleic Acid (change in survival compared to cells treated with 40 μM oleic acid) ([1]; tested at 40 μM): 0.35 ± 0.02

CCCCCCCCCCCC(=O)O [Lauric Acid]
activity in FAC+BSO assay [2]: inactive | Relative to Oleic Acid ([2]; tested at 40 μM, <0.5 toxic): 0.47 ± 0.12

CCCCCCCCCCCCCC(=O)O [Myristic Acid]
Relative to Oleic Acid ([2]; tested at 40 μM, <0.5 toxic): 0.11 ± 0.02

CCCCCCCC/C=C\CCCCCCC[C@@H](O)C(F)(F)F [OA200R, (R,Z)-1,1,1-trifluorononadec-10-en-2-ol]
decreased lipid peroxidation [3]: 20% | Lox enzymatic activity (lipoxygenases (Lox)): did not affect Lox enzymatic activity; also recorded: does not inhibit | survival ([4]; compound 10 μM): 25% | survival ([4]; compound 20 μM): 77% | survival ([4]; compound 40 μM): 95% | survival ([5]; compound 5 μM): 48% | survival ([5]; compound 10 μM): 87% | survival ([5]; compound 20 μM): 88% | concentration at which reduction of lipid peroxidation reached statistical significance [6]: 5 µM | lipid peroxidation ([6]; basal lipid peroxides): reduced lipid peroxidation in a dose-dependent manner | increase of survival ([7]; compound 5 μM, 48 h): 1.5 fold | survival ([7]; compound 5 μM): 50% | increase of survival ([7]; compound 10 μM, 48 h): 2.5 fold | survival ([7]; compound 10 μM): 80% | increase of survival ([7]; compound 20 μM, 48 h): 2.6 fold | survival ([7]; compound 20 μM): 84% | potency of (R)-enantiomer relative to (S)-enantiomer ([1]; rescue of cell viability, assay not given): seven-fold | activity ([1]; assay not given): activity resides in the (R) enantiomer

CCCCCCCCC=CCCCCCCCC(=O)NO [OA310]
Relative to Oleic Acid ([2]; 10 μM): 1.04 ± 0.04

CCCCCCCCC1OC1CCCCCCCC(=O)O (stereo not shown) [OA-50]
Relative to Oleic Acid (change in survival compared to cells treated with 40 μM oleic acid) ([1]; tested at 40 μM): 0.15 ± 0.02

CCCCCCCCC(O)C(O)CCCCCCCC(=O)O (stereo not shown) [OA-81]
Relative to Oleic Acid (change in survival compared to cells treated with 40 μM oleic acid) ([1]; tested at 40 μM): 0.14 ± 0.03

CCCCCCCCC1OC(C)(C)OC1CCCCCCCC(=O)O (stereo not shown) [OA-90]
Relative to Oleic Acid (change in survival compared to cells treated with 40 μM oleic acid) ([1]; tested at 40 μM): 0.05 ± 0.02

CCCCCCCCC1OC2(CCCCC2)OC1CCCCCCCC(=O)O (stereo not shown) [OA-95]
Relative to Oleic Acid (change in survival compared to cells treated with 40 μM oleic acid) ([1]; tested at 40 μM): 0.24 ± 0.04

CCCCCCCC/C=C\CCCCCCCC(=O)C(F)(F)F [OA-210, (Z)-1,1,1-trifluorononadec-10-en-2-one]
Relative to Oleic Acid (change in survival compared to cells treated with 40 μM oleic acid) ([1]; 10 μM printed beside the value): 0.52 ± 0.13 | toxicity [1]: slightly toxic | activity in dose response [1]: active

CCCCCCCC/C=C\CCCCCCCC(N)=O [Oleic Acid NH2]
Relative to Oleic Acid ([2]; tested at 40 μM, <0.5 toxic): 0.79 ± 0.13

CCCCCCCC/C=C\CCCCCCCC(=O)OCC [Oleic Acid OEt]
Relative to Oleic Acid ([2]; tested at 40 μM, <0.5 toxic): 0.77 ± 0.18

CCCCCCCC/C=C\CCCCCCCC(=O)OC [Oleic Acid OMe]
Relative to Oleic Acid ([2]; tested at 40 μM, <0.5 toxic): 0.95 ± 0.12

CCCCCCCC/C=C\CCCCCCCC(=O)O [Oleic Acid]
increase of PGC1-α expression (PGC1-α): 1.4 fold | effect on cell survival ([2]; compound 16 μM, FAC+BSO): doubled cell survival | efficacy in FAC+BSO assay ([2]; compound 40 μM): doubled survival | EC50 ([2]; read-out: EC50 in the FAC+BSO in mouse fibroblasts assay, FAC+BSO): 23 µM | Relative to Oleic Acid ([2]; tested at 40 μM, <0.5 toxic): 1.03 ± 0.04 | cell survival ([8]; compound 5 μM): 49% | cell survival ([8]; compound 10 μM): 55% | cell survival ([8]; compound 20 μM): 65% | rescue of cell viability ([5]; compound 40 μM, 10 μM erastin for 24 h): did not rescue cell viability | increase of survival ([7]; compound 20 μM, 48 h): 1.5 fold

CCCCCCCCCCCCCCCC(=O)O [Palmitic Acid]
Relative to Oleic Acid ([2]; tested at 40 μM, <0.5 toxic): 0.18 ± 0.07

CCCCCC/C=C\CCCCCCCC(=O)O [Palmitoleic Acid]
Relative to Oleic Acid ([2]; 20 μM): 0.73 ± 0.04 | efficacy in FAC+BSO assay ([2]; compound 40 μM): comparable to oleic acid | Relative to Oleic Acid ([2]; tested at 40 μM, <0.5 toxic): 0.77 ± 0.03

CCCCCCCCCCC/C=C\CCCCC(=O)O [Petrosenilic Acid]
efficacy in FAC+BSO assay ([2]; compound 40 μM): comparable to oleic acid | Relative to Oleic Acid ([2]; tested at 40 μM, <0.5 toxic): 0.74 ± 0.04

CCCCCCCC/C=C\CCCCCCC[C@H](O)C(F)(F)F [S-isomer, (S,Z)-1,1,1-trifluorononadec-10-en-2-ol]
efficacy ([4]; compound 5 μM, FAC and BSO): inefficacious | survival ([4]; compound 20 μM): 10% | survival ([4]; compound 40 μM): 22% | activity ([5]; any concentration, 10 μM erastin for 24 h): inactive | activity ([7]; compound between 20 and 5 μM, 48 h): no activity | activity ([1]; assay not given): inactive

CCOC(=O)c1ccc(NC2CCCCC2)c(NCc2ccccc2)c1 [SRS11-92]
cell death associated with frataxin knockdown [9]: decreased the cell death

CCCCCCCCCCCCCCCCCC(=O)O [Stearic Acid]
effect on cell survival ([2]; compound 16 μM, FAC+BSO): no effect | Relative to Oleic Acid ([2]; tested at 40 μM, <0.5 toxic): 0.50 ± 0.06

CCCCC/C=C\C/C=C\CCCCCCCC(=O)O [linoleic acid]
cell viability ([2]; compound 16 μM, FAC+BSO (alone 40% of control cells)): 30 % of control cells

CCCCC/C=C\C/C=C\C/C=C\CCCCC(=O)O [γ-linolenic Acid]
activity in FAC+BSO assay [2]: increased cell death | Relative to Oleic Acid ([2]; tested at 40 μM, <0.5 toxic): 0.16 ± 0.02

Heptadecenoic acid
Relative to Oleic Acid ([2]; 20 μM): 0.7 ± 0.05 | Relative to Oleic Acid ([2]; tested at 40 μM, <0.5 toxic): 0.83 ± 0.05
